Data reported in ChEMBL document CHEMBL1201862, “PubChem BioAssay data set” (2004).
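Test compounds were applied to cells in 96-well plates for 48 hours at 5 doses. Here, GI50 denotes the concentration required for 50% inhibition of growth.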 Activity calls are given as the source filed them. Rule as the data show it: active = GI50 up to about 1.1 µM and inactive = higher.

Columns and labels:
Experiment in all cases: NCI-60 cell line screen, 48 h
UO-31 = tested on: UO-31
NCI-H23 = tested on: NCI-H23
M14 = tested on: M14
SK-MEL-28 = tested on: SK-MEL-28
OVCAR-4 = tested on: OVCAR-4
OVCAR-8 = tested on: OVCAR-8
HCT-15 = tested on: HCT-15
COLO 205 = tested on: COLO 205
CCRF-CEM = tested on: CCRF-CEM
OVCAR-5 = tested on: OVCAR-5
ACHN = tested on: ACHN
EKVX = tested on: EKVX
786-0 = tested on: 786-0
HOP-92 = tested on: HOP-92
TK-10 = tested on: TK-10
LOX IMVI = tested on: LOX IMVI
RXF 393 = tested on: RXF 393

Row | SMILES | GI50 (UO-31) | GI50 (NCI-H23) | GI50 (M14) | GI50 (SK-MEL-28) | GI50 (OVCAR-4) | GI50 (OVCAR-8) | GI50 (HCT-15) | GI50 (COLO 205) | GI50 (CCRF-CEM) | GI50 (OVCAR-5) | GI50 (ACHN) | GI50 (EKVX) | GI50 (786-0) | GI50 (HOP-92) | GI50 (TK-10) | GI50 (LOX IMVI) | GI50 (RXF 393)
1 | C/C(CC(=O)CCC(=O)Nc1cccc(C(F)(F)F)c1)=N\NC(=O)NN | > 100 µM (inactive) | > 100 µM (inactive) | > 100 µM (inactive) | > 100 µM (inactive) | > 100 µM (inactive) | > 100 µM (inactive) | > 100 µM | > 100 µM (inactive) | > 100 µM (inactive) | > 100 µM (inactive) | > 100 µM (inactive) | > 100 µM (inactive) | > 100 µM (inactive) | > 100 µM (inactive) | > 100 µM (inactive) |  | 
2 | Cc1cc(NS(=O)(=O)c2ccc(Nc3c4ccccc4nc4c(C(=O)NCCN(C)C)ccc(Cl)c34)cc2)no1 | 3.23 µM (inactive) | 3.05 µM (inactive) | 5.25 µM (inactive) | 4.41 µM (inactive) | 4.09 µM (inactive) | 1.12 µM (active) | 5.14 µM | 2.45 µM (inactive) | 1.28 µM (inactive) | 15.1 µM (inactive) | 2.43 µM (inactive) | 8.34 µM (inactive) | 4.41 µM (inactive) |  | 13.9 µM (inactive) | 1.48 µM (inactive) | 7.6 µM (inactive)
3 | CC[As](CC)SCC1OC(OC(C)=O)C(OC(C)=O)C(OC(C)=O)C1OC(C)=O (configuration not stated) | 16.2 µM (inactive) | 13.5 µM (inactive) | 12.3 µM (inactive) | 4.01 µM (inactive) | 21.9 µM (inactive) | 16 µM (inactive) | 13.6 µM | 2.42 µM (inactive) | 3.05 µM (inactive) | 18.3 µM (inactive) | 17.4 µM (inactive) | 21.4 µM (inactive) | 14.4 µM (inactive) | 3.15 µM (inactive) | 16.6 µM (inactive) | 15.2 µM (inactive) | 3.26 µM (inactive)
4 | O=C1CCCC/C1=C/C=C/c1ccccc1 | 44.4 µM (inactive) | 51.4 µM (inactive) | 58.9 µM (inactive) | > 100 µM (inactive) | 63.8 µM (inactive) | 84.1 µM (inactive) |  | > 100 µM (inactive) | 34.6 µM (inactive) | > 100 µM (inactive) | 71.4 µM (inactive) |  | > 100 µM (inactive) | 58.5 µM (inactive) | > 100 µM (inactive) | 48.9 µM (inactive) | 47.4 µM (inactive)
5 | O=C(O[C@H]1[C@@H]2C=CO[C@@H](OC3OC(CO)C(O)C(O)C3O)[C@@H]2[C@@]2(CO)O[C@@H]12)c1ccc(O)c(O)c1 (some centres not stated) | > 100 µM (inactive) | > 100 µM (inactive) | > 100 µM (inactive) | > 100 µM (inactive) | > 100 µM (inactive) | > 100 µM (inactive) |  | > 100 µM (inactive) | > 100 µM (inactive) | > 100 µM (inactive) | > 100 µM (inactive) | > 100 µM (inactive) | > 100 µM (inactive) | > 100 µM (inactive) | > 100 µM (inactive) | > 100 µM (inactive) | > 100 µM (inactive)
6 | O=C(O)/C(O)=C1/C=C(c2ccccc2)c2ccccc21 | 19.3 µM (inactive) |  | 21.1 µM (inactive) |  | 26.1 µM (inactive) | 23.9 µM (inactive) | 22.2 µM | 18 µM (inactive) | 18.7 µM (inactive) | 23.6 µM (inactive) | 30.1 µM (inactive) |  | 28.4 µM (inactive) | 18.9 µM (inactive) | 31.6 µM (inactive) | 17.9 µM (inactive) | 19.4 µM (inactive)
7 | CC1(C)CC(C2CC(C)(C)CC(C)(C)[C@H]2O)[C@@H](O)C(C)(C)C1 (some centres not stated) | > 100 µM (inactive) | > 100 µM (inactive) | > 100 µM (inactive) | > 100 µM (inactive) |  | > 100 µM (inactive) | > 100 µM | > 100 µM (inactive) | > 100 µM (inactive) |  | > 100 µM (inactive) | > 100 µM (inactive) | > 100 µM (inactive) |  | > 100 µM (inactive) | > 100 µM (inactive) | 
8 | Cc1nc(C(N)=S)sc1C(=O)/C=C/c1c(O)ccc2ccccc12 | 58.2 µM (inactive) | > 67.5 µM (inactive) | > 100 µM (inactive) | > 71.6 µM (inactive) | > 100 µM (inactive) | 68.5 µM (inactive) | > 95.9 µM | > 100 µM (inactive) | 21.6 µM (inactive) | > 100 µM (inactive) | > 100 µM (inactive) | > 100 µM (inactive) | > 74.3 µM (inactive) | > 74.1 µM (inactive) | > 100 µM (inactive) | 26 µM (inactive) | 31.8 µM (inactive)
9 | Cc1ccc(C2=C(c3ccccc3)C(O)(c3ccc(C)cc3)C(c3ccccc3)=C2c2ccc(C)cc2)cc1 |  | 1.91 µM (inactive) | 82 µM (inactive) | > 100 µM (inactive) | > 100 µM (inactive) | > 100 µM (inactive) | > 100 µM | > 100 µM (inactive) | > 100 µM (inactive) | > 100 µM (inactive) | > 100 µM (inactive) | 72.1 µM (inactive) | > 100 µM (inactive) | > 100 µM (inactive) | > 100 µM (inactive) | > 100 µM (inactive) | 
10 | CC1=C(/C(C)=N/NC(=O)c2ccccc2O)C(C)C(/C(C)=N/NC(=O)c2ccccc2O)=C(C)N1 | 15.5 µM (inactive) | 13 µM (inactive) | 30.2 µM (inactive) | 21.8 µM (inactive) | 11.5 µM (inactive) | 16.8 µM (inactive) | 22.8 µM |  |  | 24.2 µM (inactive) | 16.3 µM (inactive) | 14.7 µM (inactive) | 18.5 µM (inactive) | 28.8 µM (inactive) | 18.8 µM (inactive) | 18.3 µM (inactive) | 4.73 µM (inactive)
11 | O=C1[C@H]2ON(c3ccccc3)C(c3ccccc3F)[C@H]2C(=O)N1c1ccc(Cc2ccc(N3C(=O)[C@@H]4ON(c5ccccc5)C(c5ccccc5F)[C@@H]4C3=O)cc2)cc1 (some centres not stated) | > 100 µM (inactive) | > 100 µM (inactive) | 34.8 µM (inactive) | > 100 µM (inactive) | > 100 µM (inactive) |  | > 100 µM | > 100 µM (inactive) | > 100 µM (inactive) | > 100 µM (inactive) | > 100 µM (inactive) |  | > 100 µM (inactive) | 21.5 µM (inactive) |  | 63.8 µM (inactive) | 55.2 µM (inactive)
12 | NC(Cc1ccccc1)C(=O)OCN1C(=O)C2C3C=CC(C2C1=O)C1C2C(=O)N(COC(=O)C(N)Cc4ccccc4)C(=O)C2C31 (configuration not stated) |  | 20.2 µM (inactive) | 20.4 µM (inactive) | 22.9 µM (inactive) | 18.3 µM (inactive) | 23.7 µM (inactive) | 17.8 µM | 17.5 µM (inactive) | 21.1 µM (inactive) | 47 µM (inactive) | 23.1 µM (inactive) | > 100 µM (inactive) | 21.1 µM (inactive) | 32 µM (inactive) | 49.3 µM (inactive) | 21.4 µM (inactive) | 22.5 µM (inactive)
13 | C#CC[N+](C)(CC#C)CC#C | > 100 µM (inactive) | > 100 µM (inactive) | > 100 µM (inactive) | > 100 µM (inactive) | > 100 µM (inactive) | > 100 µM (inactive) | > 100 µM | > 100 µM (inactive) | > 100 µM (inactive) | > 100 µM (inactive) | > 100 µM (inactive) | > 100 µM (inactive) | > 100 µM (inactive) | > 100 µM (inactive) | > 100 µM (inactive) | > 100 µM (inactive) | > 100 µM (inactive)
14 | CC(=O)OC1C=CC2CCN3C(=O)c4cc5c(cc4[C@H]1C23)OCO5 (some centres not stated) | > 100 µM (inactive) | > 100 µM (inactive) | > 100 µM (inactive) | > 100 µM (inactive) |  | > 100 µM (inactive) | > 100 µM | > 100 µM (inactive) | > 100 µM (inactive) |  | > 100 µM (inactive) | > 100 µM (inactive) | > 100 µM (inactive) |  | > 100 µM (inactive) | > 100 µM (inactive) | > 100 µM (inactive)
15 | CC(C)(C)C(=O)N1C(C(=O)O)Cc2ccccc2[C@@H]1Cc1ccccc1 (some centres not stated) |  | > 100 µM (inactive) | > 100 µM (inactive) | > 100 µM (inactive) | > 100 µM (inactive) | > 100 µM (inactive) | > 100 µM | > 100 µM (inactive) | > 100 µM (inactive) | > 100 µM (inactive) | > 100 µM (inactive) | > 100 µM (inactive) | > 100 µM (inactive) | > 100 µM (inactive) | > 100 µM (inactive) |  | > 100 µM (inactive)
16 | Cn1c(=O)nc2n(-c3cccc(Cl)c3)c3ccccc3nc-2c1=O | 34.9 µM (inactive) | 5.9 µM (inactive) | 7.93 µM (inactive) |  | 11.6 µM (inactive) | 18 µM (inactive) | 13 µM | 4.11 µM (inactive) | 19 µM (inactive) | 22.5 µM (inactive) | 3.63 µM (inactive) | 12 µM (inactive) | 15.6 µM (inactive) |  | 17 µM (inactive) | 18.7 µM (inactive) | 21.5 µM (inactive)
17 | CCCCCCCCCCCCCCCCCCOCC(C[N+]1(C)CCC(O)CC1)OCC (configuration not stated) | 11.9 µM (inactive) | 2.88 µM (inactive) | 9.51 µM (inactive) | 12.7 µM (inactive) | 4.1 µM (inactive) | 4.2 µM (inactive) |  | 3.38 µM (inactive) | 1.97 µM (inactive) |  |  | 13.8 µM (inactive) | 4.18 µM (inactive) | 1.78 µM (inactive) | 3.92 µM (inactive) |  | 
18 | Cc1cc(OC(=O)c2c(C)cc(OC(=O)c3c(C)cc(O)cc3O)cc2O)cc(O)c1C(=O)O [GYROPHORIC ACID] | 76.4 µM (inactive) | > 100 µM (inactive) | > 100 µM (inactive) | > 100 µM (inactive) | > 100 µM (inactive) | > 100 µM (inactive) |  | > 100 µM (inactive) | > 100 µM (inactive) | > 100 µM (inactive) | > 100 µM (inactive) | > 100 µM (inactive) | > 100 µM (inactive) | 69.5 µM (inactive) | > 100 µM (inactive) | > 100 µM (inactive) | > 100 µM (inactive)
